Reference: US11414431B2, “Substituted pyrazolo[1,5-a]pyrimidines as TYK2 inhibitors” (Nimbus Lakshmi, Inc., priority 2018, dated 2022)
Read-outs that look alike come from different tables or passages of the source.

Columns and labels:
JAK2 = JAK2 (Homo sapiens (Human), UniProt O60674); experiment: JAK2 Radioactive Kinase Assay; type: biochemical; conditions: for inhibition at 10 µM: read-out: JAK2 (% Inhibition at 10 μM)
Experimental: Peptide substrate, [[…]], (20 μM) was prepared in reaction buffer (20 mM Hepes pH 7.5, 10 mM MgCl2, 1 mM EGTA, 0.02% Brij35, 0.02 mg/mL BSA, 0.1 mM […], 2 mM DTT, 1% DMSO. TYK2 (Invitrogen) kinase was added, followed by compounds in DMSO. 33PATP was added to initiate the reaction in ATP at […]. Kinase reaction was incubated for 120 min at room temp and reactions were spotted onto P^81 ion exchange paper (Whatman #3698-915), and then washed extensively in 0.75% phosphoric acid, prior to reading the radioactivity counts. For JAK2 (Invitrogen) kinase assay the peptide substrate poly[Glu:Tyr] (4:1), 0.2 mg/mL was used, in the reaction carried out the same as for TYK2.

[1] = target: human TYK2 (JH2domain-pseudokinase) (Homo sapiens (Human), UniProt P29597); experiment: TYK2 JH2 Domain Binding Assay (KINOMEscan); conditions: 11-point 3-fold dilution, top concentration 30,000 nM, duplicate; read-out: hTYK2_JH2_Binding (Kd; nM)
Outline: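 KINOMEscan competition binding: HEK293-expressed NFkB-fused TYK2 JH2 (G556–D888), DNA-tagged, against immobilized ligand beads, 1 h shaking at room temperature, 0.9% DMSO. Bound kinase quantified by qPCR.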

TYK2 = TYK2 (Homo sapiens (Human), UniProt P29597); experiment: TYK2 Radioactive Kinase Assay; type: biochemical; conditions: read-out: TYK2 (% Inhibition at 10 μM)
[2] = tested on: IL-12 induced STAT4 phosphorlyation mediated by TYK2/JAK2; experiment: IL-12 Induced pSTAT4 in Human PBMC; type: cell-based; conditions: 1.7 ng/mL IL-12 for 30 minutes
Outline: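 Thawed human PBMC pre-incubated with compound 1 hr at 37° C (0.1% DMSO final), then stimulated 30 minutes with IL-12 at 1.7 ng/mL final. pSTAT4 and total STAT4 measured in cell lysates with MSD reagents.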

[3] = compound at 10 μM, substrate poly[Glu:Tyr] (4:1)
[4] = compound at 10 μM, peptide substrate […]

Chain of TYK2 (P29597 whole entry): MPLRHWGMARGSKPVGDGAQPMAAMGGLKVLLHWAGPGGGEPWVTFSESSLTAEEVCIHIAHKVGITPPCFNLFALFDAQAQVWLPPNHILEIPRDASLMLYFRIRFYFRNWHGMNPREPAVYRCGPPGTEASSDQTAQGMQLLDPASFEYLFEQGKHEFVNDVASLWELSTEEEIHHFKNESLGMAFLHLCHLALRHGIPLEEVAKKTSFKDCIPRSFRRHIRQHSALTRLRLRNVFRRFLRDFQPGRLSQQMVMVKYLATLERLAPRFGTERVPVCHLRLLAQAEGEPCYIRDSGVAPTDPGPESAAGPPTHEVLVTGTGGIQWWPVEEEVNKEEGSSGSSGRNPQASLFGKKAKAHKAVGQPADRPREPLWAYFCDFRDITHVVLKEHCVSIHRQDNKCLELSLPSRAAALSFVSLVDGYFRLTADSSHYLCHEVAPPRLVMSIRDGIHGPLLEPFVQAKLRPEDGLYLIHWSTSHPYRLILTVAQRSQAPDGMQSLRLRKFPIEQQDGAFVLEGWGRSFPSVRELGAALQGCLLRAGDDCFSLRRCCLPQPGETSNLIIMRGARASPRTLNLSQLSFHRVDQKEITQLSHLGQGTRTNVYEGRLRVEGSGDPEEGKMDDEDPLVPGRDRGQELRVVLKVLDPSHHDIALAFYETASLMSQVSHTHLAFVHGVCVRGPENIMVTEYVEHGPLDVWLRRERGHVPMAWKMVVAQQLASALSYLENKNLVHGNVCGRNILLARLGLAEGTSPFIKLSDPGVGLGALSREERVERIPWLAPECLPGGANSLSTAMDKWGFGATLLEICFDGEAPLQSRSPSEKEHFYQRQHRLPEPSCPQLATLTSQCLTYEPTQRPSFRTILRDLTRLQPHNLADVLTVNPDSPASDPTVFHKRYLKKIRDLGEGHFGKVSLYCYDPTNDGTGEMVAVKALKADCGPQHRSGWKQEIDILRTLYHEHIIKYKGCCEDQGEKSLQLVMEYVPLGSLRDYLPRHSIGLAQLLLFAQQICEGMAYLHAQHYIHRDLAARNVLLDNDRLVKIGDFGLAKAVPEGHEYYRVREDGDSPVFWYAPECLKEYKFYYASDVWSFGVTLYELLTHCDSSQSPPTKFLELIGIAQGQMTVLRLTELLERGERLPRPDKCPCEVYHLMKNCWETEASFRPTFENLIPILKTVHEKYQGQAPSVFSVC
Chain of human TYK2 (JH2domain-pseudokinase) (P29597 556-888): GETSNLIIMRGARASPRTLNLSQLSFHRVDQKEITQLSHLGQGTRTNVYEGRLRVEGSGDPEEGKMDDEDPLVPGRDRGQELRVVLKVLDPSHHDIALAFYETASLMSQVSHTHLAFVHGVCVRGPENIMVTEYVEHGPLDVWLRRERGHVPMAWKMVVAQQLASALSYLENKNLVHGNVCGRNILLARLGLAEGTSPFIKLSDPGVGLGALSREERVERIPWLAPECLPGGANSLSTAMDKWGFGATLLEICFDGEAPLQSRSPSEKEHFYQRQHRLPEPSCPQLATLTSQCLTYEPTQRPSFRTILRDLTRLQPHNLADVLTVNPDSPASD
Chain of JAK2 (O60674 whole entry): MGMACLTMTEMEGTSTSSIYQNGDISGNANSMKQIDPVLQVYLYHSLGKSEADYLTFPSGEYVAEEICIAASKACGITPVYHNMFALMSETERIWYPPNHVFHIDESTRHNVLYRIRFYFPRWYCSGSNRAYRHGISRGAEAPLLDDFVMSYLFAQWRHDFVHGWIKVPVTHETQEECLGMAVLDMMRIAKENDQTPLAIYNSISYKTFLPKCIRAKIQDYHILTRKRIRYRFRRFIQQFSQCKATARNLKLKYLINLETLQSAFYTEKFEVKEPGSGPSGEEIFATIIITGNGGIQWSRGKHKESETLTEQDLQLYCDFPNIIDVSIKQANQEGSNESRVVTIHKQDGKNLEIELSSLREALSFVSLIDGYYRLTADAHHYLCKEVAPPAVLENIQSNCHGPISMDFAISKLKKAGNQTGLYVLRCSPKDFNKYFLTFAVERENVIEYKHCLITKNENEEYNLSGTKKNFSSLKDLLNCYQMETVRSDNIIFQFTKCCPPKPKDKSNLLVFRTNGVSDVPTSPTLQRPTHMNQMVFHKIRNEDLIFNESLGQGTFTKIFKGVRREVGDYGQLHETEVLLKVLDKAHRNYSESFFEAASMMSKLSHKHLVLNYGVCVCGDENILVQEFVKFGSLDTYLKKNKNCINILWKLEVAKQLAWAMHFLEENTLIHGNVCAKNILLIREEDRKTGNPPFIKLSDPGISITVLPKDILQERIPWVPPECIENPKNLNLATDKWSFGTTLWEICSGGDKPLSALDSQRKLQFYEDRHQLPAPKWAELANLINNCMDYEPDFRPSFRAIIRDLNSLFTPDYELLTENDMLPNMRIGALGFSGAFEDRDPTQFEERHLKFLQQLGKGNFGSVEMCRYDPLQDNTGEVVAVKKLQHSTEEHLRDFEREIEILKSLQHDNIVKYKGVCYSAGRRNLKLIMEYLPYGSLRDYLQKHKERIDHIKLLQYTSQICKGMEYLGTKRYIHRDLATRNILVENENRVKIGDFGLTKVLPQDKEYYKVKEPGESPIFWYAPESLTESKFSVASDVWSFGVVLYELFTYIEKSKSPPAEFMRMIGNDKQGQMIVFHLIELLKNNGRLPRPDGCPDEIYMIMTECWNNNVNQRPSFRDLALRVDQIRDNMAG

CNc1cc(Nc2cccn([C@H]3CC[C@H](OC)CC3)c2=O)nc2c(C(=O)N[C@@H]3CC[C@@H](OC)C3)cnn12 [Compound I-69, 5-((1-((1r,4R)-4-Methoxycyclohexyl)-2-oxo-1,2-dihydropyridin-3-yl)amino)-N-((1R,3R)-3-methoxycyclopentyl)-7-(methylamino)pyrazolo[1,5-a]pyrimidine-3-carboxamide]
JAK2 (% Inhibition at 10 μM) (JAK2; [3]): A (percent inhibition at 10 μM lower than 50)

CNc1cc(Nc2cccn(C3CC(F)(F)C3)c2=O)nc2c(C(=O)N[C@H]3CC[C@@H](O)C3)cnn12 [Compound I-37, 5-((1-(3,3-Difluorocyclobutyl)-2-oxo-1,2-dihydropyridin-3-yl)amino)-N-((1S,3R)-3-hydroxycyclopentyl)-7-(methylamino)pyrazolo[1,5-a]pyrimidine-3-carboxamide]
Kd [1]: 0.2 to 1 nM | inhibition at 10 µM (JAK2; [3]): < 50% | inhibition at 10 µM (TYK2; [4]): < 50%

CNc1cc(Nc2cccn(C3CCC[C@@](C)(O)C3)c2=O)nc2c(C(=O)N[C@@H]3C[C@@H]3F)cnn12 (stereo partly drawn) [Compound I-6, N-((1R,2S)-2-Fluorocyclopropyl)-5-((1-(3-hydroxy-3-methylcyclohexyl)-2-oxo-1,2-dihydropyridin-3-yl)amino)-7-(methylamino)pyrazol[1,5-a]pyrimidine-3-carboxamide]
inhibition at 10 µM (JAK2; [3]): < 50% | inhibition at 10 µM (TYK2; [4]): < 50%

CNc1cc(Nc2cccn([C@H]3[C@@H]4COC[C@@H]43)c2=O)nc2c(C(=O)NC3C[C@H]3OC)cnn12 (mixture of isomers) [Compound I-24, 5-((1-((1R,5S,6r)-3-Oxabicyclo[3.1.0]hexan-6-yl)-2-oxo-1,2-dihydropyridin-3-yl)amino)-N-(2-methoxycyclopropyl)-7-(methylamino)pyrazolo[1,5-a]pyrimidine-3-carboxamide]
IC50 ([2]; 0.5 h): < 0.1 µM | inhibition at 10 µM (JAK2; [3]): < 50% | inhibition at 10 µM (TYK2; [4]): < 50%

CNc1cc(Nc2cccn([C@H]3C[C@H](F)C3)c2=O)nc2c(C(=O)NC3CC[C@@H]3OC)cnn12 (stereo partly drawn) [Compound I-46, 5-((1-((1r,3S)-3-Fluorocyclobutyl)-2-oxo-1,2-dihydropyridin-3-yl)amino)-N-((trans-1,2)-2-methoxycyclobutyl)-7-(methylamino)pyrazolo[1,5-a]pyrimidine-3-carboxamide]
IC50 ([2]; 0.5 h): < 0.1 µM | inhibition at 10 µM (JAK2): < 50% | inhibition at 10 µM (TYK2): < 50%

CNc1cc(Nc2cccn([C@H]3C[C@H](F)C3)c2=O)nc2c(C(=O)N[C@@H]3C[C@@H]3F)cnn12 [Compound I-7, 5-((1-((1r,3R)-3-Fluorocyclobutyl)-2-oxo-1,2-dihydropyridin-3-yl)amino)-N-((1R,2S)-2-fluorocyclopropyl)-7-(methylamino)pyrazolo[1,5-a]pyrimidine-3-carboxamide]
IC50 ([2]; 0.5 h): < 0.1 µM | inhibition at 10 µM (JAK2; [3]): < 50% | inhibition at 10 µM (TYK2; [4]): < 50%

CNc1cc(Nc2cccn(C3CC(F)(F)C3)c2=O)nc2c(C(=O)N[C@H]3CCC[C@H](O)C3)cnn12 [Compound I-63, 5-((1-(3,3-Difluorocyclobutyl)-2-oxo-1,2-dihydropyridin-3-yl)amino)-N-((1S,3S)-3-hydroxycyclohexyl)-7-(methylamino)pyrazolo[1,5-a]pyrimidine-3-carboxamide]
inhibition at 10 µM (JAK2; [3]): < 50% | inhibition at 10 µM (TYK2; [4]): < 50%

CNc1cc(-c2cn(C3CCOCC3)c3ncc(F)cc23)nc2c(C(=O)N[C@H]3CC[C@@H]3O)cnn12 [Compound I-18, 5-(5-Fluoro-1-(tetrahydro-2H-pyran-4-yl)-1H-pyrrolo[2,3-b]pyridin-3-yl)-N-((1S,2S)-2-hydroxycyclobutyl)-7-(methylamino)pyrazolo[1,5-a]pyrimidine-3-carboxamide]
Kd [1]: < 0.2 nM | inhibition at 10 µM (JAK2; [3]): < 50% | inhibition at 10 µM (TYK2; [4]): < 50%

CNc1cc(Nc2cccn([C@H]3CCCOC3)c2=O)nc2c(C(=O)N[C@@H]3CCC[C@@](C)(OC)C3)cnn12 [Compound I-94, N-((1R,3R)-3-Methoxy-3-methylcyclohexyl)-7-(methylamino)-5-((2-oxo-1-((S)-tetrahydro-2H-pyran-3-yl)-1,2-dihydropyridin-3-yl)amino)pyrazolo[1,5-a]pyrimidine-3-carboxamide]
Kd [1]: 1 to 10 nM | inhibition at 10 µM (JAK2; [3]): < 50% | inhibition at 10 µM (TYK2; [4]): < 50%

CNc1cc(Nc2cccn(C3CC(F)(F)C3)c2=O)nc2c(C(=O)N[C@H]3COC[C@H]3O)cnn12 [Compound I-58, 5-((1-(3,3-Difluorocyclobutyl)-2-oxo-1,2-dihydropyridin-3-yl)amino)-N-((3S,4S)-4-hydroxytetrahydrofuran-3-yl)-7-(methylamino)pyrazolo[1,5-a]pyrimidine-3-carboxamide]
Kd [1]: 0.2 to 1 nM | inhibition at 10 µM (JAK2; [3]): < 50% | inhibition at 10 µM (TYK2; [4]): < 50%

CNc1cc(Nc2cccn(C3CC(F)(F)C3)c2=O)nc2c(C(=O)N[C@@H]3CCC[C@@H](O)C3)cnn12 [Compound I-62, 5-((1-(3,3-Difluorocyclobutyl)-2-oxo-1,2-dihydropyridin-3-yl)amino)-N-((1R,3R)-3-hydroxycyclohexyl)-7-(methylamino)pyrazolo[1,5-a]pyrimidine-3-carboxamide]
inhibition at 10 µM (JAK2; [3]): < 50% | inhibition at 10 µM (TYK2; [4]): < 50%

CNc1cc(Nc2cccn(C3CC(F)(F)C3)c2=O)nc2c(C(=O)NC3C[C@H]3OC)cnn12 (stereo partly drawn) [Compound I-33, 5-((1-(3,3-Difluorocyclobutyl)-2-oxo-1,2-dihydropyridin-3-yl)amino)-N-((trans-1,2)-2-methoxycyclopropyl)-7-(methylamino)pyrazolo[1,5-a]pyrimidine-3-carboxamide]
IC50 ([2]; 0.5 h): < 0.1 µM | inhibition at 10 µM (JAK2; [3]): < 50% | inhibition at 10 µM (TYK2; [4]): < 50%

CNc1cc(Nc2cccn(-c3ccccn3)c2=O)nc2c(C(=O)N[C@@H]3CC[C@@H](OC)C3)cnn12 [Compound I-67, N-((1R,3R)-3-Methoxycyclopentyl)-7-(methylamino)-5-((2-oxo-2H-[1,2′-bipyridin]-3-yl)amino)pyrazolo[1,5-a]pyrimidine-3-carboxamide]
inhibition at 10 µM (JAK2; [3]): < 50% | inhibition at 10 µM (TYK2; [4]): < 50%

CNc1cc(Nc2cccn([C@H]3C[C@H](F)C3)c2=O)nc2c(C(=O)NC3CC[C@@H](OC)C3)cnn12 (mixture of isomers) [Compound I-66, 5-((1-((1r,3R)-3-Fluorocyclobutyl)-2-oxo-1,2-dihydropyridin-3-yl)amino)-N-(3-methoxycyclopentyl)-7-(methylamino)pyrazolo[1,5-a]pyrimidine-3-carboxamide]
inhibition at 10 µM (JAK2; [3]): < 50% | inhibition at 10 µM (TYK2; [4]): < 50%

CNc1cc(Nc2cccn([C@H]3CC[C@H](OC)CC3)c2=O)nc2c(C(=O)N[C@H]3CC[C@H](OC)C3)cnn12 [Compound I-70, 5-((1-((1 r,4S)-4-Methoxycyclohexyl)-2-oxo-1,2-dihydropyridin-3-yl)amino)-N-((1S,3S)-3-methoxycyclopentyl)-7-(methylamino)pyrazolo[1,5-a]pyrimidine-3-carboxamide]
JAK2 (% Inhibition at 10 μM) (JAK2; [3]): A (percent inhibition at 10 μM lower than 50)

N-((cis-1,2)-2-Hydroxycyclobutyl)-5-(1-((1s,3R)-3-hydroxycyclobutyl)-1H-pyrrolo[2,3-b]pyridin-3-yl)-7-(methylamino)pyrazolo[1,5-a]pyrimidine-3-carboxamide [Compound I-111]
IC50 [2]: 0.1 to 0.5 µM | Kd [1]: < 0.2 nM
